Results reported in US11242335B2, “Fluorine-substituted indazole compounds and uses thereof” (SUNSHINE LAKE PHARMA CO., LTD., priority 2017, dated 2022).

The molecules below were run against T1, soluble guanylate cyclase (sGC) expressed by CHO-K1-Rat sGC monoclonal cell line (Rattus norvegicus, UniProt P19686+P20595) (assay: Effect on recombinant guanylate cyclase reporter cell line (CHO-K1-Rat sGC, Cisbio cGMP HTRF)). Details: activating soluble guanylate cyclase.
T1 construct: expressed in transfected cells; host or cells: CHO-K1
T1 sequence (P19686 1-690): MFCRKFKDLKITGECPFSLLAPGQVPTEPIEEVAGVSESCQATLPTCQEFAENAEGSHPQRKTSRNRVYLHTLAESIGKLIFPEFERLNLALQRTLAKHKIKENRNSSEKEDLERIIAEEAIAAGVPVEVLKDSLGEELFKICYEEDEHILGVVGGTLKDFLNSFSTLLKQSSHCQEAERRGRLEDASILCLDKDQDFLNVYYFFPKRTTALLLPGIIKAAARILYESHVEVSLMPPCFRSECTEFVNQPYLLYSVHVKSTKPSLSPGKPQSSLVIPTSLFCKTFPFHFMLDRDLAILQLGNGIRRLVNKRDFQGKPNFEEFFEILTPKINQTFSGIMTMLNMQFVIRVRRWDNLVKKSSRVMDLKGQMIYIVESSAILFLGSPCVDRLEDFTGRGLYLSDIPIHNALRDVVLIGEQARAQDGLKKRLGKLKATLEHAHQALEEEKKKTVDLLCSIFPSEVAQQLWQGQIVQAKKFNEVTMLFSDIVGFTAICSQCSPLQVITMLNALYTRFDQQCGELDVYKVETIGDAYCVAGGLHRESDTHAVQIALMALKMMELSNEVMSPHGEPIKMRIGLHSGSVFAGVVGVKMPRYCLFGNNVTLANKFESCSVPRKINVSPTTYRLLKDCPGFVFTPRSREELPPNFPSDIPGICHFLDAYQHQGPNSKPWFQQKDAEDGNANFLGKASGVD
T1 sequence (P20595 1-619): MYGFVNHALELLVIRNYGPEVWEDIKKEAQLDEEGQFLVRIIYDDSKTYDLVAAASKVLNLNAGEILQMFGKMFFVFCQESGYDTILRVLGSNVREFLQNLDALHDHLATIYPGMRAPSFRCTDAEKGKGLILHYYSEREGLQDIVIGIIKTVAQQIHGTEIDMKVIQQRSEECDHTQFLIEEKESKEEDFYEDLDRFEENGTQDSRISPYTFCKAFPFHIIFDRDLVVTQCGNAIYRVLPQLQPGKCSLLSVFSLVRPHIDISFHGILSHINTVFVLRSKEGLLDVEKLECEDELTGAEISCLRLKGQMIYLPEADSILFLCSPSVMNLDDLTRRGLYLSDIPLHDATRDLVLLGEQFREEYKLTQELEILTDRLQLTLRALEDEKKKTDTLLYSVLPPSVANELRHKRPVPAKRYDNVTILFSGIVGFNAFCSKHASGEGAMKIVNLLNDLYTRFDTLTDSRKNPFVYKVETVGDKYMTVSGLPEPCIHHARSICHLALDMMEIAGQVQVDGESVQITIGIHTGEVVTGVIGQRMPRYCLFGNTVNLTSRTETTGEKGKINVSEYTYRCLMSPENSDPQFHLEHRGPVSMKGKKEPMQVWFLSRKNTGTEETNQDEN
Assay type: cell-based
From the text: Transfection of Soluble Guanylate Cyclase (sGC) gene into CHO-K1 cells and selection of cells with stably and highly expressed sGC: Rat sGCα1 and Rat sGCβ1 Genes were synthesized, and then pcDNA3.1(+)-rat sGCα1 and pcDNA3.1/Hygro (+)-rat sGCβ1 plasmid were constructed; the plasmid was co-transfected into CHO-K1 cells, and a positive clone cell line stably expressing CHO-K1-Rat sGC was selected using the Cisbio cGMP HTRF assay kit.
The activity of the compound on the CHO-K1-Rat sGC monoclonal cell line was determined: The CHO-K1-Rat sGC monoclonal cell line was cultured, and used for test operation at degree of fusion of about 70% to 90%. The cells were resuspended in complete medium after TrypLE digestion; the cells were inoculated in a 384-well (low volume tissues culture treated) cell culture plate at a seeding density of 7500/well in 25 μL of complete medium and incubated at 37° C. in 5% CO2 atmosphere for 20 hours; the test compounds were dissolved and dilute with DMSO to give 10 concentration gradients (2× working concentration); 384-well cell culture plates were centrifugated (200 g) for 3 seconds by inversion at RT, medium was removed; The test compounds in each different concentration gradient and corresponding reagent were added into each cell well according to the detection process of Cisbio cGMP HTRF assay kit. The data were collected with Envision HTRF detector and the EC50 value of each compound in activating soluble guanylate cyclase was calculated.

Row | EC50 [µM] | SMILES
1 | 0.68 | Nc1nc(-c2nn(Cc3ccccc3F)c3cc(F)ccc23)nc(N)c1NC1CCOC1 (stereo not drawn) [Example 9, 2-(6-fluoro-1-(2-fluorobenzyl)-1H-indazol-3-yl)-N^5-(tetrahydrofuran-3-yl) pyrimidine-4,5,6-triamine]
2 | 0.12 | Nc1nc(-c2nn(Cc3ccccc3F)c3c(F)cccc23)nc(N)c1NC1CCOC1 (stereo not drawn) [Example 12, 2-(7-fluoro-1-(2-fluorobenzyl)-1H-indazol-3-yl)-N^5-(tetrahydrofuran-3-yl)pyrimidine-4,5,6-triamine]
3 | 0.062 | Nc1nc(-c2nn(Cc3ccccc3F)c3c(F)cccc23)nc(N)c1N1CCOCC1 [Example 14, 2-(7-fluoro-1-(2-fluorobenzyl)-1H-indazol-3-yl)-5-morpholinopyrimidine-4,6-diamine]
4 | 0.69 | Nc1nc(-c2nn(Cc3ccccc3F)c3c(F)cccc23)nc(N)c1NC(=O)C1CCCO1 (stereo not drawn) [Example 16, N-(4,6-diamino-2-(7-fluoro-1-(2-fluorobenzyl)-1H-indazol-3-yl)pyrimidin-5-yl)tetrahydrofuran-2-carboxamide]
5 | 0.42 | Nc1nc(-c2nn(Cc3ccccc3F)c3c(F)cccc23)nc(N)c1NC(=O)C1CCCCO1 (stereo not drawn) [Example 17, N-(4,6-diamino-2-(7-fluoro-1-(2-fluorobenzyl)-1H-indazol-3-yl)pyrimidin-5-yl)tetrahydro-2H-pyran-2-carboxamide]
6 | 0.86 | Oc1nc(-c2nn(Cc3ccccc3F)c3c(F)cccc23)ncc1F [Example 25, 5-fluoro-2-(7-fluoro-1-(2-fluorobenzyl)-1H-indazol-3-yl)pyrimidin-4-ol]
7 | 0.1 | CC(C)(O)CNc1c(N)nc(-c2nn(Cc3ccccc3F)c3c(F)cccc23)nc1N [Example 26, 1-((4,6-diamino-2-(7-fluoro-1-(2-fluorobenzyl)-1H-indazol-3-yl)pyrimidin-5-yl)amino)-2-methylpropan-2-ol]
8 | 0.094 | CC(Nc1c(N)nc(-c2nn(Cc3ccccc3F)c3c(F)cccc23)nc1N)C1CCOCC1 (stereo not drawn) [Example 28, 2-(7-fluoro-1-(2-fluorobenzyl)-1H-indazol-3-yl)-N^5-(1-(tetrahydro-2H-pyran-4-yl)ethyl)pyrimidine-4,5,6-triamine]
9 | 0.82 | Nc1nc(-c2nn(Cc3ccccc3F)c3c(F)cccc23)ncc1C(=O)O [Example 30, 4-amino-2-(7-fluoro-1-(2-fluorobenzyl)-1H-indazol-3-yl)pyrimidine-5-carboxylic acid]
10 | 0.035 | Nc1nc(-c2nn(Cc3ccccc3F)c3c(F)cccc23)ncc1C(=O)NC1CC1 [Example 31, 4-amino-N-cyclopropyl-2-(7-fluoro-1-(2-fluorobenzyl)-1H-indazol-3-yl) pyrimidine-5-carboxamide]
11 | 0.089 | CNC(=O)c1cnc(-c2nn(Cc3ccccc3F)c3c(F)cccc23)nc1N [Example 32, 4-amino-2-(7-fluoro-1-(2-fluorobenzyl)-1H-indazol-3-yl)-N-methyl pyrimidine-5-carboxamide]
12 | 0.81 | COC(=O)N(C)c1c(N)nc(-c2nn(Cc3cncnc3)c3c(F)cccc23)nc1N [Example 34, methyl (4,6-diamino-2-(7-fluoro-1-(pyrimidin-5-ylmethyl)-1H-indazol-3-yl)pyrimidin-5-yl)(methyl)carbamate]
13 | 0.76 | Nc1nc(-c2nn(Cc3ccccc3F)c3c(F)cccc23)nc(N)c1C(=O)O [Example 42, 4,6-diamino-2-(7-fluoro-1-(2-fluorobenzyl)-1H-indazol-3-yl)pyrimidine-5-carboxylic acid]
14 | 0.34 | Nc1nc(-c2nn(Cc3ccccc3F)c3c(F)cccc23)nc(N)c1C(=O)NC1CC1 [Example 44, 4,6-diamino-N-cyclopropyl-2-(7-fluoro-1-(2-fluorobenzyl)-1H-indazol-3-yl) pyrimidine-5-carboxamide]
15 | 0.16 | CN(C)C(=O)c1cnc(-c2nn(Cc3ccccc3F)c3c(F)cccc23)nc1N [Example 45, 4-amino-2-(7-fluoro-1-(2-fluorobenzyl)-1H-indazol-3-yl)-N,N-dimethyl pyrimidine-5-carboxamide]
16 | 0.2 | Nc1nc(-c2nn(Cc3ccccc3F)c3c(F)cccc23)ncc1C(=O)N1CCOCC1 [Example 46, (4-amino-2-(7-fluoro-1-(2-fluorobenzyl)-1H-indazol-3-yl)pyrimidin-5-yl) (morpholino)methanone]
17 | 0.12 | Nc1nc(-c2nn(Cc3ccccc3F)c3c(F)cccc23)ncc1C(=O)N1CCCC1 [Example 47, (4-amino-2-(7-fluoro-1-(2-fluorobenzyl)-1H-indazol-3-yl)pyrimidin-5-yl) (pyrrolidin-1-yl)methanone]
18 | 0.27 | Nc1nc(-c2nn(Cc3ccccc3F)c3c(F)cccc23)ncc1C(=O)NCCO [Example 49, 4-amino-2-(7-fluoro-1-(2-fluorobenzyl)-1H-indazol-3-yl)-N-(2-hydroxyethyl)pyrimidine-5-carboxamide]
19 | 0.42 | Nc1nc(-c2nn(Cc3ccccc3F)c3c(F)cccc23)ncc1C(=O)N1CCS(=O)(=O)CC1 [Example 51, (4-amino-2-(7-fluoro-1-(2-fluorobenzyl)-1H-indazol-3-yl)pyrimidin-5-yl) (1,1-dioxidothiomorpholino)methanone]
20 | 0.11 | Nc1nc(-c2nn(Cc3ccccc3F)c3c(F)cccc23)ncc1C(=O)N1CCC(F)(F)CC1 [Example 52, (4-amino-2-(7-fluoro-1-(2-fluorobenzyl)-1H-indazol-3-yl)pyrimidin-5-yl) (4,4-difluoropiperidin-1-yl)methanone]
21 | 0.39 | CN1CCN(C(=O)c2cnc(-c3nn(Cc4ccccc4F)c4c(F)cccc34)nc2N)CC1 [Example 53, (4-amino-2-(7-fluoro-1-(2-fluorobenzyl)-1H-indazol-3-yl)pyrimidin-5-yl) (4-methylpiperazin-1-yl)methanone]
22 | 0.14 | Nc1nc(-c2nn(Cc3ccccc3F)c3c(F)cccc23)ncc1C(=O)N1CC(O)C1 [Example 54, (4-amino-2-(7-fluoro-1-(2-fluorobenzyl)-1H-indazol-3-yl)pyrimidin-5-yl) (3-hydroxyazetidin-1-yl)methanone]
23 | 0.34 | CNC(=O)c1cnc(-c2nn(Cc3ccccc3F)c3c(F)cccc23)nc1 [Example 56, 2-(7-fluoro-1-(2-fluorobenzyl)-1H-indazol-3-yl)-N-methylpyrimidine-5-carboxamide]
24 | 0.079 | O=C(NC1CC1)c1cnc(-c2nn(Cc3ccccc3F)c3c(F)cccc23)nc1 [Example 57, N-cyclopropyl-2-(7-fluoro-1-(2-fluorobenzyl)-1H-indazol-3-yl)pyrimidine-5-carboxamide]
25 | 0.058 | OCCCNc1nc(-c2nn(Cc3ccccc3F)c3c(F)cccc23)ncc1F [Example 59, 3-((5-fluoro-2-(7-fluoro-1-(2-fluorobenzyl)-1H-indazol-3-yl)pyrimidin-4-yl)amino)propan-1-ol]
26 | 0.12 | OCCNc1nc(-c2nn(Cc3ccccc3F)c3c(F)cccc23)ncc1F [Example 60, 2-((5-fluoro-2-(7-fluoro-1-(2-fluorobenzyl)-1H-indazol-3-yl)pyrimidin-4-yl)amino)ethanol]
27 | 0.075 | OCCN1CCN(c2nc(-c3nn(Cc4ccccc4F)c4c(F)cccc34)ncc2F)CC1 [Example 62, 2-(4-(5-fluoro-2-(7-fluoro-1-(2-fluorobenzyl)-1H-indazol-3-yl)pyrimidin-4-yl)piperazin-1-yl)ethanol]
